Laboratory results published in the supplement of paper PMC10307832.

The cell lines below were run with NCC(=O)Nc1ccc(-n2nc(C(F)(F)F)cc2-c2ccc3c(ccc4ccccc43)c2)cc1 + C[C@@H](Oc1cc(-c2cnn(C3CCNCC3)c2)cnc1N)c1c(Cl)ccc(F)c1Cl [Crizotinib] (partner 1 µM) (assay: relative viability (nuclei count vs DMSO), 5 days (fraction); higher = more cells survive). Details: first compound 0.02 µM.
In short: (§1)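 Medians of duplicate plates are given as relative viability. That measure is the nuclei count in treated wells divided by the count in vehicle wells. Counts were taken on 4× images of lung cancer cell lines in 1536-well plates, 5 days after pin-tool dosing the day after seeding with one drug alone or a fixed anchor-drug dose plus five library-drug doses (not always all listed) in √10 steps.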

In order of falling relative viability:
1. ABC-1  1.33
2. NCI-H2170  1.24
3. LCLC-103H  1.16
4. NCI-H661  1.16
5. NCI-H2009  1.06
6. SK-MES-1  1.04
7. NCI-H1944  1.04
8. NCI-H2126  1
9. NCI-H1666  1
10. NCI-H596  1
11. NCI-H1299  0.97
12. NCI-H1993  0.939
13. H3255  0.936
14. NCI-H1563  0.887
15. COR-L 105  0.873
16. NCI-H2085  0.862
17. Calu-6  0.862
18. NCI-H838  0.856
19. SK-LU-1  0.854
20. COR-L23  0.825
21. NCI-H520  0.787
22. NCI-H2087  0.779
23. IA-LM  0.775
24. A549  0.762
25. SW 1573  0.756
26. EMC-BAC-2  0.737
27. NCI-H2023  0.737
28. LOU-NH91  0.725
29. CAL-12T  0.682
30. NCI-H358  0.622
31. NCI-H2228  0.56
32. HCC-366  0.558
33. LK-2  0.247

Same assay, conditions: first compound 0.06325 µM

In order of falling relative viability:
1. ABC-1  1.77
2. NCI-H2170  1.22
3. NCI-H1650  1.14
4. NCI-H596  1.12
5. NCI-H520  1.09
6. NCI-H1944  1.05
7. NCI-H2009  1.03
8. LCLC-103H  1.01
9. NCI-H2126  1
10. SK-MES-1  0.994
11. NCI-H1993  0.987
12. NCI-H1299  0.969
13. SK-LU-1  0.949
14. NCI-H1563  0.91
15. NCI-H661  0.905
16. NCI-H1666  0.904
17. NCI-H838  0.903
18. NCI-H2085  0.901
19. NCI-H2087  0.866
20. Calu-6  0.854
21. H3255  0.846
22. NCI-H727  0.816
23. COR-L 105  0.765
24. EMC-BAC-2  0.763
25. LOU-NH91  0.761
26. SW 1573  0.756
27. A549  0.755
28. NCI-H2023  0.751
29. CAL-12T  0.73
30. NCI-H1703  0.657
31. NCI-H2228  0.652
32. COR-L23  0.638
33. HCC-366  0.589
34. IA-LM  0.573
35. NCI-H358  0.557
36. EBC-1  0.236
37. LK-2  0.234

Same assay, conditions: first compound 0.2 µM

In order of falling relative viability:
1. NCI-H1666  1.16
2. NCI-H661  1.11
3. SK-LU-1  1.11
4. NCI-H1944  1.11
5. LCLC-103H  1.1
6. NCI-H2170  1.1
7. NCI-H2009  1.07
8. NCI-H2126  1.05
9. SK-MES-1  1.04
10. IA-LM  1.02
11. NCI-H596  1.01
12. NCI-H1299  0.991
13. NCI-H2085  0.938
14. NCI-H1703  0.924
15. NCI-H727  0.897
16. NCI-H520  0.889
17. NCI-H2087  0.889
18. H3255  0.884
19. NCI-H1563  0.881
20. NCI-H838  0.879
21. Calu-6  0.853
22. SW 1573  0.837
23. NCI-H1650  0.836
24. COR-L23  0.823
25. NCI-H1993  0.822
26. COR-L 105  0.803
27. EMC-BAC-2  0.797
28. A549  0.774
29. LOU-NH91  0.754
30. NCI-H2023  0.619
31. NCI-H2228  0.603
32. CAL-12T  0.591
33. NCI-H358  0.572
34. HCC-366  0.55
35. LK-2  0.232
36. EBC-1  0.204

Same assay, conditions: first compound 0.6325 µM

In order of falling relative viability:
1. NCI-H2170  1.22
2. NCI-H2009  1.09
3. NCI-H1650  1.08
4. NCI-H1944  1.06
5. NCI-H596  1.05
6. ABC-1  1.04
7. NCI-H1993  1.03
8. LCLC-103H  1.02
9. NCI-H2126  1.01
10. SK-MES-1  0.979
11. NCI-H1299  0.944
12. NCI-H2087  0.906
13. NCI-H2085  0.865
14. NCI-H1666  0.854
15. SW 1573  0.848
16. COR-L 105  0.845
17. Calu-6  0.838
18. NCI-H1563  0.835
19. SK-LU-1  0.831
20. NCI-H838  0.813
21. H3255  0.806
22. IA-LM  0.797
23. NCI-H727  0.787
24. A549  0.767
25. HCC-366  0.736
26. CAL-12T  0.716
27. EMC-BAC-2  0.712
28. COR-L23  0.703
29. NCI-H2023  0.703
30. NCI-H520  0.687
31. NCI-H1703  0.621
32. LOU-NH91  0.565
33. NCI-H358  0.56
34. NCI-H2228  0.544
35. LK-2  0.236
36. EBC-1  0.198

Same assay, conditions: first compound 2 µM

In order of falling relative viability:
1. NCI-H2170  1.22
2. NCI-H1650  1.19
3. NCI-H1944  1.13
4. COR-L 105  1.06
5. NCI-H2126  1.04
6. NCI-H2009  1.04
7. SK-MES-1  1.03
8. SK-LU-1  1.03
9. NCI-H661  1.01
10. NCI-H1299  1
11. NCI-H1563  0.997
12. ABC-1  0.992
13. NCI-H1666  0.982
14. LCLC-103H  0.977
15. NCI-H1703  0.951
16. NCI-H596  0.943
17. SW 1573  0.911
18. NCI-H1993  0.902
19. NCI-H727  0.899
20. H3255  0.894
21. NCI-H2087  0.885
22. A549  0.826
23. NCI-H2085  0.819
24. Calu-6  0.774
25. EMC-BAC-2  0.765
26. NCI-H838  0.761
27. NCI-H358  0.761
28. LOU-NH91  0.756
29. IA-LM  0.742
30. CAL-12T  0.722
31. NCI-H2023  0.702
32. NCI-H520  0.694
33. COR-L23  0.631
34. NCI-H2228  0.493
35. HCC-366  0.456
36. EBC-1  0.25
37. LK-2  0.244

These cell lines were tested with NCC(=O)Nc1ccc(-n2nc(C(F)(F)F)cc2-c2ccc3c(ccc4ccccc43)c2)cc1 + NC(=O)Nc1cc(-c2cccc(F)c2)sc1C(=O)N[C@H]1CCCNC1 [AZD7762] (partner 0.2 µM) in the same assay as above. Details: first compound 0.02 µM.
In short: as §1

In order of rising relative viability:
1. NCI-H1703  0.127
2. HCC-366  0.236
3. NCI-H1395  0.373
4. NCI-H1793  0.434
5. LK-2  0.459
6. NCI-H1944  0.476
7. NCI-H727  0.531
8. NCI-H358  0.535
9. NCI-H522  0.609
10. SW 900  0.635
11. NCI-H2342  0.666
12. CAL-12T  0.739
13. NCI-H1666  0.75
14. LCLC-103H  0.796
15. LOU-NH91  0.799
16. ABC-1  0.811
17. H3255  0.853
18. NCI-H2170  0.87
19. NCI-H1648  0.893
20. NCI-H2085  0.943
21. NCI-H1993  0.957
22. NCI-H2126  0.969
23. NCI-H838  1.01
24. EMC-BAC-2  1.09
25. NCI-H596  1.14
26. NCI-H2087  1.29

Same assay, conditions: first compound 0.06325 µM

In order of falling relative viability:
1. NCI-H2087  1.24
2. NCI-H2126  1.12
3. EMC-BAC-2  1.1
4. NCI-H522  1.09
5. NCI-H2085  1.03
6. NCI-H596  1.03
7. NCI-H1993  0.933
8. NCI-H838  0.922
9. H3255  0.914
10. NCI-H2170  0.907
11. ABC-1  0.899
12. NCI-H1666  0.844
13. LCLC-103H  0.79
14. LOU-NH91  0.783
15. NCI-H2342  0.633
16. CAL-12T  0.622
17. NCI-H1648  0.598
18. NCI-H358  0.593
19. NCI-H1793  0.568
20. SW 900  0.558
21. NCI-H727  0.53
22. NCI-H1944  0.484
23. LK-2  0.47
24. NCI-H1395  0.421
25. HCC-366  0.205

Same assay, conditions: first compound 0.2 µM

In order of rising relative viability:
1. NCI-H1703  0.122
2. HCC-366  0.31
3. NCI-H1395  0.37
4. LK-2  0.402
5. NCI-H2342  0.502
6. NCI-H1944  0.551
7. NCI-H1793  0.573
8. NCI-H727  0.58
9. NCI-H358  0.607
10. SW 900  0.701
11. NCI-H1993  0.706
12. CAL-12T  0.718
13. NCI-H1648  0.74
14. LCLC-103H  0.752
15. LOU-NH91  0.784
16. NCI-H522  0.815
17. NCI-H1666  0.919
18. NCI-H2170  0.94
19. H3255  0.959
20. NCI-H596  0.984
21. NCI-H838  0.986
22. NCI-H2126  1.02
23. NCI-H2085  1.04
24. EMC-BAC-2  1.1
25. NCI-H2087  1.31

Same assay, conditions: first compound 0.6325 µM

In order of rising relative viability:
1. NCI-H1703  0.124
2. HCC-366  0.276
3. NCI-H1395  0.407
4. NCI-H1793  0.447
5. NCI-H2342  0.449
6. NCI-H1944  0.47
7. LK-2  0.493
8. NCI-H358  0.609
9. SW 900  0.659
10. NCI-H1648  0.663
11. CAL-12T  0.669
12. NCI-H727  0.696
13. ABC-1  0.758
14. LOU-NH91  0.804
15. LCLC-103H  0.812
16. NCI-H1993  0.839
17. NCI-H1666  0.868
18. NCI-H522  0.888
19. NCI-H2170  0.911
20. NCI-H838  0.913
21. H3255  0.974
22. NCI-H2126  1.01
23. NCI-H2085  1.06
24. EMC-BAC-2  1.13
25. NCI-H596  1.28
26. NCI-H2087  1.36

Same assay, conditions: first compound 2 µM

In order of falling relative viability:
1. NCI-H2087  1.23
2. EMC-BAC-2  1.16
3. NCI-H596  1.08
4. NCI-H2085  1.04
5. NCI-H2126  1.01
6. NCI-H838  0.957
7. NCI-H1666  0.91
8. H3255  0.898
9. ABC-1  0.866
10. NCI-H2170  0.86
11. NCI-H522  0.828
12. LCLC-103H  0.818
13. LOU-NH91  0.795
14. NCI-H1993  0.784
15. NCI-H1793  0.742
16. SW 900  0.655
17. NCI-H727  0.599
18. NCI-H1648  0.588
19. CAL-12T  0.588
20. NCI-H1944  0.559
21. NCI-H2342  0.558
22. NCI-H358  0.526
23. LK-2  0.381
24. NCI-H1395  0.38
25. HCC-366  0.333
26. NCI-H1703  0.142
